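Values below derive from 48-hour exposures of cells grown in 96-well plates, with endpoints linearly interpolated between the two concentrations bracketing the appropriate inhibition level. At the GI50, growth is halved. TGI marks complete inhibition of growth.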
Assays:
Experiment in all cases: DTP human tumour cell line panel, 48 h
OVCAR-4 ovarian = system: OVCAR-4 ovarian
CCRF-CEM leukemia = system: CCRF-CEM leukemia
786-0 renal = system: 786-0 renal
NCI-H460 lung = system: NCI-H460 lung
SW-620 colon = system: SW-620 colon
IGROV1 ovarian = system: IGROV1 ovarian
SNB-19 CNS = system: SNB-19 CNS
SF-295 CNS = system: SF-295 CNS
MDA-MB-435 = system: MDA-MB-435
HT29 colon = system: HT29 colon

Compound | GI50 (OVCAR-4 ovarian) [µM] | TGI (OVCAR-4 ovarian) [µM] | GI50 (CCRF-CEM leukemia) [µM] | TGI (CCRF-CEM leukemia) [µM] | GI50 (786-0 renal) [µM] | TGI (786-0 renal) [µM] | GI50 (NCI-H460 lung) [µM] | TGI (NCI-H460 lung) [µM] | GI50 (SW-620 colon) [µM] | TGI (SW-620 colon) [µM] | GI50 (IGROV1 ovarian) [µM] | TGI (IGROV1 ovarian) [µM] | GI50 (SNB-19 CNS) [µM] | TGI (SNB-19 CNS) [µM] | GI50 (SF-295 CNS) [µM] | TGI (SF-295 CNS) [µM] | GI50 (MDA-MB-435) [µM] | TGI (MDA-MB-435) [µM] | TGI (HT29 colon) [µM] | GI50 (HT29 colon) [µM]
COc1cc2c(c(OC)c1OC)-c1ncc3cc(OC)c(OC)c(OC)c3c1C2 | 44.5 | > 100 | > 100 | > 100 | 35.9 | > 100 | 30 | 78.2 | 32.4 | 98.7 | 25.2 | 63.2 | 28.9 | 94.2 | 18.7 | 42.4 | 20.8 | 51 |  | 
COc1ccc(NC(=O)C/C(C)=N\N=C(N)N)c([N+](=O)[O-])c1 |  | > 100 |  | > 100 |  | > 100 |  | > 100 |  |  |  | > 100 |  | > 100 |  | > 100 |  |  | > 100 | 
Clc1cc(Cl)c(OCC#CI)cc1Cl |  |  | 2.88 | > 100 | 1.69 | 3.39 | 15.5 | 30.9 | 1.76 | 3.88 |  |  | 18.3 | 43.9 | 10.4 | 23.7 | 2.02 | 5.44 | 5.66 | 2.1
C[Si](C)(C)OC1(C#N)C2C3CC4C2C(=O)C2C4C3C21 (stereo not drawn) |  | > 100 |  | > 100 |  | > 100 |  | > 100 |  | > 100 |  | > 100 |  | > 100 |  |  |  |  |  | 
C=C1COC(/C=C(\C)CC/C=C(\C)CCl)C1 (stereo not drawn) |  | > 100 |  | > 100 |  | > 100 |  | > 100 |  | > 100 |  | > 100 |  | > 100 |  | > 100 |  |  | > 100 | 
COc1ccc(C2CC(c3cc(OC)c(OC)c(OC)c3)=NN2C(C)=O)cc1OCC(=O)Nc1nc2ccc(C(F)(F)F)cc2s1 (stereo not drawn) | 2.9 | > 100 |  |  | 3.58 | 12.2 |  |  | > 100 | > 100 | 5.3 | > 100 | 11 | 35.8 | 3.06 | 11.5 |  |  |  | 
c1ccc(SC(CCCCC(Sc2ccccc2)Sc2ccccc2)Sc2ccccc2)cc1 |  | > 100 |  | > 100 |  | > 100 |  | > 100 |  | > 100 |  |  |  | > 100 |  | > 100 |  |  |  | 
CCCCCCCCCCCC(=O)OCCOCCOCCOCCOCCOCc1ccc(OC)cc1 |  | > 100 |  | > 100 |  | > 100 |  | > 100 |  | > 100 |  | > 100 |  | > 100 |  | > 100 |  |  | > 100 | 
CN(C)c1ccc2c(c1)Sc1cc(N(C)C)ccc1N2C(=O)c1ccccc1 | 44.6 | > 100 | > 100 | > 100 | 32.8 | > 100 | 20.5 | > 100 | 71.6 | > 100 | 14.1 | 77.6 | 34.2 | > 100 | 10.1 | > 100 | 65 | > 100 |  | 
O=c1cc(-c2ccccc2)[nH]c2cc(O)ccc12 |  | 58.1 |  | 42.6 |  | > 100 |  | 33.3 |  | 31.3 |  | 65.6 |  | > 100 |  | > 100 |  |  | 46.1 | 

Reference: PubChem BioAssay (NCI)
